{"source": "patent US20120093809A1", "about": "“USE OF ALKANOYL L-CARNITINE IN COMBINATION WITH CHEMOTHERAPEUTIC AGENTS FOR THE TREATMENT OF NEOPLASMS” (priority 2008, published 2012)", "key": {"[1]": {"tested_on": "A2780/Dx multidrug-resistant ovarian carcinoma", "procedure": "A2780/Dx cancer cells were injected subcutaneously (s.c.) in the right flank of CD1 nude mice (5×10^6/100 μL/mouse). Treatments started eleven days after cancer injection.\nMice were subdivided (10 mice/group) in the following experimental groups: doxorubicin was given intravenously according to the schedule q7dx3 and acetyl-L-carnitine according to the schedule qdx5/wx3w.\nAcetyl L-carnitine was administered immediately before the agent given in combination.\nTo evaluate the anticancer activity, tumor diameters were measured with a Vernier caliper. The formula TV (mm^3)=[length (mm)×width (mm)^2]/2 was used, where the width and the length are the shortest and the longest diameters of each cancer, respectively. Efficacy of the molecule was evaluated as tumor volume inhibition (TVI %) according to the equation: % TVI=100-[(mean cancer weight of treated mice/mean cancer weight of control group)×100]. and Log10 cell kill (LCK) calculated by the formula LCK=(T−C)/3.32×DT, where T and C were the mean times (days) required for treated (T) and control (C) tumors, respectively, to reach 1 cm^3, and DT was the doubling time of control tumors. When tumors reached a volume of about 2 cm^3, mice were sacrificed by cervical dislocation."}, "tumour growth": {"tested_on": "tumour growth", "details": "WO/2000/06134, cited from earlier work"}, "[2]": {"tested_on": "NCI-H460 non-small cell lung carcinoma", "assay": "Antitumor activity of cisplatin in combination with L-carnitine, s.c. xenograft", "type": "in vivo", "details": "L-carnitine 200 mg/kg po given chronically", "experimental": "Treatments started three days after tumor injection.\nTo evaluate the antitumor activity, tumor diameters were measured with a Vernier caliper.\nWhen tumors reached a volume of 1-2 cm^3, mice were sacrificed by cervical dislocation. Body weight recording was carried out through the study and mortality was noted."}, "[3]": {"tested_on": "NCI-H460 non-small cell lung carcinoma", "assay": "Antitumor effect of carboplatin with and without acetyl L-carnitine, s.c. xenograft", "experimental": "Treatments started three days after cancer injection. Mice were subdivided (8 mice/group) in the following experimental groups: vehicle receiving only sterile water, carboplatin 40 mg/kg, i.p. q4d/wx3w; acetyl L-carnitine (200 mg/kg po, qdx5/wx3w)+carboplatin.\nBody weight recording was carried out through the study."}, "[4]": {"tested_on": "SJSA-1 (with amplification of mdm2) osteosarcoma cells", "assay": "Antiproliferative activity of cisplatin with and without acetyl L-carnitine, MTT assay", "type": "cell-based", "experimental": "(§1) Moreover, the activity was also evaluated on two prostate tumor cell lines with p53 wild-type (LnCaP) or p53 null (PC3). […] The number of surviving cells was finally determined by the tetrazolium salt (MTT) assay, as described by Hansen M B et al. (Re-examination and further development of a precise and rapid dye method for measuring cell growth/cell kill. J. Immunol. Methods 119: 203-10, 1989). […] In this case the statistical comparison was performed by Mann-Whitney test.\n(§2) To test the effects of the compounds on cell growth, tumor cells were seeded in 96-well tissue culture plates at approximately 10% confluence and were allowed to attach and recover for at least 24 h. Tumor cells were exposed to compounds for 72 h or 6 days in 0.1% FBS at 37° C., then medium culture was removed and 100 μL/well of medium were added containing 25 μL/well of a solution 5 mg/mL MTT (final 1 mg/mL). Plates were kept at. 37° C. in incubator with 5% CO2 for 2 h for the formation of blu chrystals. The supernatant was removed and 100 μL/well of lysant medium were added. Plates were kept under stirring for 60 min. The survival cell was determined as optical density by a Multiskan spectrofluorimeter at 570 nm."}, "[5]": {"tested_on": "LnCaP prostate carcinoma cells (p53 wild-type)", "assay": "Antiproliferative activity of cisplatin with and without acetyl L-carnitine, MTT assay", "type": "cell-based", "details": "acetyl L-carnitine 10 mM; ≧72 h of exposure; 0.1% FBS", "experimental": "as §1, §2"}, "[6]": {"tested_on": "NCI-H1650 non-small cell lung carcinoma cells", "assay": "Antiproliferative activity of cisplatin with and without acetyl L-carnitine, MTT assay", "type": "cell-based", "experimental": "as §1, §2"}, "lung metastases [7]": {"tested_on": "lung metastases", "details": "ALC 100 mg/kg/day p.o.; cited from earlier work"}, "[8]": {"tested_on": "NCI-H460 non-small cell lung carcinoma cells", "assay": "Antiproliferative activity of cisplatin with and without acetyl L-carnitine, MTT assay", "type": "cell-based", "experimental": "as §1\nas §2, with “Tumor cells were exposed to compounds for 72 h or 6 days in 0.1% FBS at 37° C., then medium culture was removed and 100 μL/well of medium were added containing 25 μL/well of a solution 5 mg/mL MTT (final 1 mg/mL).” left out"}, "[9]": {"tested_on": "A2780/Dx multidrug-resistant ovarian carcinoma cells", "assay": "Antiproliferative activity of cisplatin with and without acetyl L-carnitine, MTT assay", "type": "cell-based", "experimental": "as §1\nas §2, with “Tumor cells were exposed to compounds for 72 h or 6 days in 0.1% FBS at 37° C., then medium culture was removed and 100 μL/well of medium were added containing 25 μL/well of a solution 5 mg/mL MTT (final 1 mg/mL).” left out"}, "lung metastases [10]": {"tested_on": "lung metastases", "details": "WO/2000/06134; ALC orally 100 mg/kg; cited from earlier work"}, "[11]": {"details": "day +24, doxorubicin 6 mg/kg iv, alone or with acetyl L-carnitine 200 mg/kg po"}, "[12]": {"details": "day +31, carboplatin 40 mg/kg ip q4d/wx3w, alone or with acetyl L-carnitine 200 mg/kg po qdx5/wx3w"}, "[13]": {"details": "acetyl L-carnitine 1 mM, same schedule and serum conditions"}, "[14]": {"details": "acetyl L-carnitine 10 mM, 72 h, medium with 10% FBS"}, "[15]": {"details": "acetyl L-carnitine 10 mM, ≧72 h of exposure, 0.1% FBS"}}}
{"smiles": "COc1cccc2c1C(=O)c1c(O)c3c(c(O)c1C2=O)C[C@@](O)(C(=O)CO)C[C@@H]3O[C@H]1C[C@H](N)[C@H](O)[C@H](C)O1", "note": "[Doxorubicin, doxorubicin]", "values": [{"measurement": "LCK (1 cm^3)", "setting": "[1]; DT = 2.9 days, doxorubicin 6 mg/kg iv, alone or with acetyl L-carnitine 200 mg/kg po", "value": 0.7}, {"measurement": "TV ± SE +24", "setting": "[1]; [11]", "value": "1059 ± 195", "unit": "mm^3"}, {"measurement": "TVI % ± SE +24", "setting": "[1]; [11]", "value": "**60 ± 11%"}, {"measurement": "Leth.", "setting": "[1]; dead/total mice, doxorubicin 6 mg/kg iv, alone or with acetyl L-carnitine 200 mg/kg po", "value": "0/10"}, {"measurement": "BWL % max", "setting": "[1]; doxorubicin 6 mg/kg iv q7dx3, alone or with acetyl L-carnitine 200 mg/kg po qdx5/wx3w", "value": 0, "unit": "%"}]}
{"smiles": "CC(=O)O[C@H]1C(=O)[C@@]2(C)[C@H]([C@H](OC(=O)c3ccccc3)[C@]3(O)C[C@H](OC(=O)[C@H](O)[C@@H](NC(=O)c4ccccc4)c4ccccc4)C(C)=C1C3(C)C)[C@]1(OC(C)=O)CO[C@@H]1C[C@@H]2O", "note": "[Paclitaxel]", "values": [{"measurement": "TVI", "setting": "tumour growth; ALC orally 100 mg/kg where combined", "value": 88, "unit": "%"}]}
{"smiles": "C[N+](C)(C)C[C@H](O)CC(=O)[O-]", "note": "[L-carnitine]", "values": [{"measurement": "potentiation of the cytotoxic activity of cisplatin", "setting": "[2]", "value": "not able to potentiate the cytotoxic activity of cisplatin"}]}
{"smiles": "N.N.O=C([O-])C1(C(=O)[O-])CCC1.[Pt+2]", "note": "[CARBOPLATIN, Carboplatin]", "values": [{"measurement": "LCK (1 cm^3)", "setting": "[3]; Log10 cell kill, DT = 3.6 days, carboplatin 40 mg/kg ip, alone or with acetyl L-carnitine 200 mg/kg po", "value": 0.66}, {"measurement": "BWL %", "setting": "[3]; carboplatin 40 mg/kg ip q4d/wx3w, alone or with acetyl L-carnitine 200 mg/kg po qdx5/wx3w", "value": 1, "unit": "%"}, {"measurement": "TV ± SE +31", "setting": "[3]; [12]", "value": "*704 ± 254 mm^3"}, {"measurement": "TVI % +31", "setting": "[3]; [12]", "value": 48, "unit": "%"}, {"measurement": "TVI % +31", "setting": "[3]; day +31, carboplatin 40 mg/kg ip q4d/wx3w, alone or with acetyl L-carnitine 200 mg/kg po qdx5/wx3w, listed as carboplatin", "value": "about 48%"}, {"measurement": "LETHAL", "setting": "[3]; dead/total mice, carboplatin 40 mg/kg ip q4d/wx3w, alone or with acetyl L-carnitine 200 mg/kg po qdx5/wx3w", "value": "0/8"}]}
{"smiles": "CC(=O)O[C@H](CC(=O)[O-])C[N+](C)(C)C", "note": "[acetyl L-carnitine]", "values": [{"measurement": "potentiation of the cytotoxic activity of cisplatin", "setting": "[4]; [13]", "value": "ineffective"}, {"measurement": "potentiation of the cytotoxic activity of cisplatin", "setting": "[4]; [14]", "value": "failed to increase cisplatin anti-proliferative activity"}, {"measurement": "potentiation of the cytotoxic activity of cisplatin", "setting": "[4]; acetyl L-carnitine 10 mM, 72 h of exposure, 0.1% FBS", "value": "able to potentiate the cytotoxic activity of cisplatin"}, {"measurement": "potentiation of the cytotoxic activity of cisplatin", "setting": "[5]", "value": "able to potentiate the cytotoxic activity of cisplatin"}, {"measurement": "potentiation of the cytotoxic activity of cisplatin", "setting": "[6]; [13]", "value": "ineffective"}, {"measurement": "potentiation of the cytotoxic activity of cisplatin", "setting": "[6]; [14]", "value": "failed to increase cisplatin anti-proliferative activity"}, {"measurement": "potentiation of the cytotoxic activity of cisplatin", "setting": "[6]; [15]", "value": "able to potentiate the cytotoxic activity of cisplatin"}, {"measurement": "protection from toxicity of the antitumor drug", "setting": "lung metastases [7]", "value": "protects the mice from the lethal toxicity and from the neurotoxicity"}, {"measurement": "effect on tumour growth", "setting": "tumour growth; ALC orally 100 mg/kg", "value": "no effect on tumour growth"}, {"measurement": "potentiation of the cytotoxic activity of cisplatin", "setting": "[8]; [13]", "value": "ineffective"}, {"measurement": "potentiation of the cytotoxic activity of cisplatin", "setting": "[8]; [14]", "value": "failed to increase cisplatin anti-proliferative activity"}, {"measurement": "potentiation of the cytotoxic activity of cisplatin", "setting": "[8]; [15]", "value": "able to potentiate the cytotoxic activity of cisplatin"}, {"measurement": "potentiation of the cytotoxic activity of cisplatin", "setting": "[9]; [13]", "value": "ineffective"}, {"measurement": "potentiation of the cytotoxic activity of cisplatin", "setting": "[9]; [14]", "value": "failed to increase cisplatin anti-proliferative activity"}, {"measurement": "potentiation of the cytotoxic activity of cisplatin", "setting": "[9]; [15]", "value": "able to potentiate the cytotoxic activity of cisplatin"}, {"measurement": "effect on the formation of lung metastases", "setting": "lung metastases [10]", "value": "significant inhibitory effect on the formation of lung metastases"}]}
